The values that follow are results of earlier work, collected in US11331329B2, “Fucosylated oligosaccharides for prevention of coronavirus infection” (Glycosyn LLC, priority 2020, dated 2022).

A value given as a limit tells only on which side of the number the result lay.

The conditions of the series: oral.

In the case of 2′-Fucosyllactose [2′-FL], the toxicity entry (natural component of human milk) is recorded as “non-toxic”. Moreover, under “adult”, the “high doses that may lead to mild gut discomfort and a reversible osmotic diarrhea” value was > 10 g per day.
